In patent US20120083522A1, “MODULATION OF INFLAMMATORY RESPONSES BY FACTOR XI” (Isis Pharmaceuitcals, inc., priority 2009, published 2012):
In the oligonucleotide strings, read from the 5' end, every base follows the letter of its sugar. An asterisk marks phosphorothioate; unmarked linkages are phosphodiester. Other units and linkages are bracketed, terminal groups are in braces. A string of capitals states the bases alone. e = 2'-O-(2-methoxyethyl) (MOE); [5mC] = 5-methylcytosine; d = 2'-deoxy (DNA)

Experiments:
mouse Factor XI mRNA = experiment: Cross-reactive antisense inhibition in primary mouse hepatocytes, 100 nM (Example 9); type: cell-based; conditions: approx. 24 h, percent inhibition relative to untreated control cells
Method: Antisense oligonucleotides targeted to a murine Factor XI nucleic acid were tested for their effects on Factor XI mRNA in vitro. Cultured primary mouse hepatocytes at a density of 10,000 cells per well were treated with 100 nM antisense oligonucleotide. After a treatment period of approximately 24 hours, RNA was isolated from the cells and mouse Factor XI mRNA levels were measured by quantitative real-time PCR. Factor XI mRNA levels were adjusted according to total RNA content, as measured by RIBOGREEN®. Results are presented as percent inhibition of Factor XI, relative to untreated control cells.
The chimeric antisense oligonucleotides in Tables 16 were designed as 5-10-5 MOE gapmers. The gapmers are 20 nucleotides in length, wherein the central gap segment is comprised of 10 2′-deoxynucleotides and is flanked on both sides (in the 5′ and 3′ directions) by wings comprising 5 nucleotides each. Each nucleotide in the 5′ wing segment and each nucleotide in the 3′ wing segment has a 2′-MOE modification. The internucleoside linkages throughout each gapmer are phosphorothioate (P═S) linkages. All cytidine residues throughout each gapmer are 5-methylcytidines. “Mouse target start site” indicates the 5′-most nucleotide to which the gapmer is targeted. “Mouse target stop site” indicates the 3′-most nucleotide to which the gapmer is targeted. All the mouse oligonucleotides listed show cross-reactivity between the mouse Factor XI mRNA (GENBANK Accession No. NM_028066.1), incorporated herein as SEQ ID NO: 6 and the human Factor XI mRNA (GENBANK Accession No. NM_000128.3), incorporated herein as SEQ ID NO: 1. “Human Target Start Site” indicates the 5′-most nucleotide in the human mRNA (GENBANK Accession No. NM_000128.3) to which the antisense oligonucleotide is targeted. “Human Target Stop Site” indicates the 3′-most nucleotide in the human mRNA (GENBANK Accession No. NM_000128.3) to which the antisense oligonucleotide is targeted. “Number of mismatches” indicates the mismatches between the mouse oligonucleotide and the human mRNA sequence.

[1] = Tolerability in CD1 mice: kidney function (Example 21); type: in vivo; conditions: plasma, 50 mg/kg s.c. twice per week for 6 weeks
[2] = Tolerability in CD1 mice: liver function (Example 21); type: in vivo; set-up: Albumin: unit not given here; conditions: plasma, 50 mg/kg s.c. twice per week for 6 weeks
[3] = Tolerability in CD1 mice: body and organ weights (Example 21); type: in vivo; conditions: 50 mg/kg s.c. twice per week for 6 weeks; for Body weight: increase over PBS control weight before start of treatment; for Kidney weight / Liver weight / Spleen weight: percentage of the body weight
Method: Body weight was measured at the onset of the study and subsequently twice per week. The body weights of the mice are presented in Table 87 and are expressed increase in grams over the PBS control weight taken before the start of treatment. Liver, spleen, and kidney weights were measured at the end of the study, and are also presented in Table 87 as percentage of the body weight.

[4] = Tolerability in Sprague-Dawley rats: liver function (Example 23); type: in vivo; set-up: Albumin: unit not given here; conditions: plasma, 50 mg/kg s.c. twice per week for 6 weeks
[5] = Tolerability in CD1 mice: hematology assays (Example 21); type: in vivo; conditions: 50 mg/kg s.c. twice per week for 6 weeks
[6] = Tolerability in Sprague-Dawley rats: hematology assays (Example 23); type: in vivo; set-up: RBC / WBC / Neutrophil / Lymphocyte / Platelets: unit not given here; conditions: blood
[7] = Tolerability in Sprague-Dawley rats: kidney function (Example 23); type: in vivo; conditions: for BUN: plasma; for Total urine protein / Urine protein/creatinine ratio: total urine samples
[8] = Tolerability in Sprague-Dawley rats: body and organ weights (Example 23); type: in vivo; conditions: 50 mg/kg s.c. twice per week for 6 weeks; for Body weight: increase over PBS control weight before start of treatment; for Kidney weight / Liver weight / Spleen weight: percentage of the body weight

Substance | Inhibition of mouse Factor XI mRNA levels (column headed SEQ ID No.) (mouse Factor XI mRNA) | BUN [1] [mg/dL] | ALT [2] [IU/L] | AST [2] [IU/L] | Albumin [2] | Bilirubin [2] [mg/dL] | Cholesterol [2] [mg/dL] | Body weight [3] [g] | Kidney weight [3] [%] | Liver weight [3] [%] | Spleen weight [3] [%] | ALT [4] [IU/L] | AST [4] [IU/L] | Albumin [4] | Bilirubin [4] [mg/dL] | HCT [5] [%] | Hemoglobin [5] [g/dL] | Lymphocyte [5] [cells/μL] | Monocytes [5] [cells/μL] | Neutrophil [5] [cells/μL] | other results
404050 (antisense eT*eG*e[5mC]*eT*eT*dG*dA*dA*dG*dG*dA*dA*dT*dA*dT*e[5mC]*e[5mC]*eA*eG*eA) [compound 404050] | 82 | – | – | – | – | – | – | – | – | – | – | – | – | – | – | – | – | – | – | – | –
404054 (antisense eT*eA*eG*eT*eT*d[5mC]*dA*dT*dG*d[5mC]*d[5mC]*d[5mC]*dT*dT*d[5mC]*eA*eT*eG*eT*e[5mC]) [compound 404054] | 45 | – | – | – | – | – | – | – | – | – | – | – | – | – | – | – | – | – | – | – | –
404055 (antisense eT*eG*eT*eT*eA*dT*dA*dG*dT*dT*d[5mC]*dA*dT*dG*d[5mC]*e[5mC]*e[5mC]*eT*eT*e[5mC]) [compound 404055] | 27 | – | – | – | – | – | – | – | – | – | – | – | – | – | – | – | – | – | – | – | –
404066 (antisense eA*eA*eT*eG*eT*d[5mC]*d[5mC]*d[5mC]*dT*dG*dA*dT*dA*d[5mC]*dA*eA*eG*e[5mC]*e[5mC]*eA) [compound 404066] | 37 | – | – | – | – | – | – | – | – | – | – | – | – | – | – | – | – | – | – | – | –
404067 (antisense eG*eG*eG*eA*eA*dA*dA*dT*dG*dT*d[5mC]*d[5mC]*d[5mC]*dT*dG*eA*eT*eA*e[5mC]*eA) [compound 404067] | 39 | – | – | – | – | – | – | – | – | – | – | – | – | – | – | – | – | – | – | – | –
404083 (antisense eT*eG*eT*eG*e[5mC]*dA*dG*dA*dG*dT*d[5mC]*dA*d[5mC]*d[5mC]*dT*eG*e[5mC]*e[5mC]*eA*eT) [compound 404083] | 47 | – | – | – | – | – | – | – | – | – | – | – | – | – | – | – | – | – | – | – | –
404087 (antisense eT*eT*e[5mC]*eT*eT*dG*dA*dA*d[5mC]*d[5mC]*d[5mC]*dT*dG*dA*dA*eG*eA*eA*eA*eG) [compound 404087] | 29 | – | – | – | – | – | – | – | – | – | – | – | – | – | – | – | – | – | – | – | –
404089 (antisense eT*eG*eA*eA*eT*dT*dA*dT*d[5mC]*dA*dT*dT*dT*d[5mC]*dT*eT*eG*eA*eA*e[5mC]) [compound 404089] | 6 | – | – | – | – | – | – | – | – | – | – | – | – | – | – | – | – | – | – | – | –
404090 (antisense eT*eG*eA*eT*e[5mC]*dA*dT*dG*dA*dA*dT*dT*dA*dT*d[5mC]*eA*eT*eT*eT*e[5mC]) [compound 404090] | 42 | – | – | – | – | – | – | – | – | – | – | – | – | – | – | – | – | – | – | – | –
ACAGTTTCTGGCAGGCCTCG (antisense; all C 5-methyl, all phosphorothioate, sugars by position not given here; MOE gapmer, 5-10-5) [ISIS 412223, 5-10-5 MOE gapmer] | – | 28 | 60 | 125 | 3.0 | 0.20 | 117 | 12 | 1.5 | 6 | 0.4 | 85 | 180 | 5 | 0.14 | 48 | 15 | 4599 | 200 | 1756 | Platelets [5]: 862 10^3/μL; RBC [5]: 9 10^6/μL; WBC [5]: 7 10^3/μL; HCT [6]: 41%; Hemoglobin [6]: 13.1 g/dL; Lymphocyte [6]: 16990; Neutrophil [6]: 1826; Platelets [6]: 567; RBC [6]: 7.2; WBC [6]: 20; creatinine [7]: 46 mg/dL; BUN [7]: 24 mg/dL; Total urine protein [7]: 224 mg/dL; Urine protein/creatinine ratio [7]: 4.6; Body weight [8]: 126 g; Kidney weight [8]: 1.0%; Liver weight [8]: 5%; Spleen weight [8]: 0.5%
GCAGCGGACGGCATTGGTGC (antisense; all C 5-methyl, all phosphorothioate, sugars by position not given here; MOE gapmer, 5-10-5) [ISIS 412225, 5-10-5 MOE gapmer] | – | 23 | 40 | 69 | 3.3 | 0.23 | 128 | 10 | 1.5 | 6 | 0.4 | 48 | 108 | 5 | 0.15 | 50 | 15 | 4969 | 293 | 1547 | Platelets [5]: 574 10^3/μL; RBC [5]: 9 10^6/μL; WBC [5]: 7 10^3/μL; HCT [6]: 42%; Hemoglobin [6]: 13.4 g/dL; Lymphocyte [6]: 13204; Neutrophil [6]: 1499; Platelets [6]: 673; RBC [6]: 7.4; WBC [6]: 15; creatinine [7]: 58 mg/dL; BUN [7]: 23 mg/dL; Total urine protein [7]: 209 mg/dL; Urine protein/creatinine ratio [7]: 4.0; Body weight [8]: 184 g; Kidney weight [8]: 1.0%; Liver weight [8]: 4%; Spleen weight [8]: 0.5%
GCATTGGTGCACAGTTTCTG (antisense; all C 5-methyl, all phosphorothioate, sugars by position not given here; MOE gapmer, 5-10-5) [ISIS 412224, 5-10-5 MOE gapmer] | – | 29 | 214 | 183 | 3.4 | 0.19 | 114 | 10 | 1.6 | 6 | 0.5 | 84 | 132 | 4 | 0.12 | 50 | 15 | 6284 | 195 | 2107 | Platelets [5]: 647 10^3/μL; RBC [5]: 10 10^6/μL; WBC [5]: 9 10^3/μL; HCT [6]: 42%; Hemoglobin [6]: 13.4 g/dL; Lymphocyte [6]: 16807; Neutrophil [6]: 1865; Platelets [6]: 685; RBC [6]: 7.4; WBC [6]: 20; creatinine [7]: 44 mg/dL; BUN [7]: 24 mg/dL; Total urine protein [7]: 171 mg/dL; Urine protein/creatinine ratio [7]: 3.8; Body weight [8]: 165 g; Kidney weight [8]: 1.0%; Liver weight [8]: 5%; Spleen weight [8]: 0.5%
GGACGGCATTGGTGCACAGT (antisense; all C 5-methyl, all phosphorothioate, sugars by position not given here; MOE gapmer, 5-10-5) [ISIS 413482, 5-10-5 MOE gapmer] | – | 27 | 54 | 77 | 3.0 | 0.24 | 138 | 11 | 1.6 | 6 | 0.5 | 59 | 157 | 4 | 0.14 | 50 | 15 | 5584 | 275 | 1958 | Platelets [5]: 818 10^3/μL; RBC [5]: 10 10^6/μL; WBC [5]: 8 10^3/μL; HCT [6]: 40%; Hemoglobin [6]: 13.2 g/dL; Lymphocyte [6]: 11430; Neutrophil [6]: 1125; Platelets [6]: 641; RBC [6]: 7.1; WBC [6]: 13; creatinine [7]: 34 mg/dL; BUN [7]: 23 mg/dL; Total urine protein [7]: 157 mg/dL; Urine protein/creatinine ratio [7]: 4.8; Body weight [8]: 158 g; Kidney weight [8]: 1.0%; Liver weight [8]: 5%; Spleen weight [8]: 0.6%
